These results are taken from paper PMC3643815 (Combinatorial chemistry & high throughput screening, 2011).

For orientation: inhibition means the relative decrease from the control value, in per cent.

Counter-ions that a name gives are not always drawn. Like-named read-outs stand apart in the source and are kept apart here.

Data set [1] in a line: Solubility by laser nephelometry. The note with it: dilutions up to 77 μM.
Data set [2] concerns the target T1, human Cdc7-Dbf4 kinase (Cdc7-Dbf4 heterodimer) (Homo sapiens, UniProt O00311). Briefly: Cdc7-Dbf4 kinase assay with the SPA method. To be noted: 45 mM EDTA in 1% DMSO, 25 μM [γ-33P]-ATP. The data set is classed as biochemical.
For data set [3], the target named is T1, human Cdc7-Dbf4 kinase (Cdc7-Dbf4 heterodimer). As to the kind of experiment: Cdc7-Dbf4 kinase assay with the LUM method. The note with it: for ADP production IC50: LUM method, 12.5 μM ATP, up to 77 μM compound, duplicate, N.E. = no effect. Format: biochemical.
In data set [4] the test system is luminescence detection (luciferase luminescence signal). As to the kind of experiment: Dose response in the luminescence detection step of the LUM method.
Data set [5] concerns ADP processing (ATP depletion, ATP regeneration, luciferase reaction). Briefly: Dose response in the ADP processing step of the LUM method. The data set is classed as biochemical.

T1 sequence (O00311 whole entry): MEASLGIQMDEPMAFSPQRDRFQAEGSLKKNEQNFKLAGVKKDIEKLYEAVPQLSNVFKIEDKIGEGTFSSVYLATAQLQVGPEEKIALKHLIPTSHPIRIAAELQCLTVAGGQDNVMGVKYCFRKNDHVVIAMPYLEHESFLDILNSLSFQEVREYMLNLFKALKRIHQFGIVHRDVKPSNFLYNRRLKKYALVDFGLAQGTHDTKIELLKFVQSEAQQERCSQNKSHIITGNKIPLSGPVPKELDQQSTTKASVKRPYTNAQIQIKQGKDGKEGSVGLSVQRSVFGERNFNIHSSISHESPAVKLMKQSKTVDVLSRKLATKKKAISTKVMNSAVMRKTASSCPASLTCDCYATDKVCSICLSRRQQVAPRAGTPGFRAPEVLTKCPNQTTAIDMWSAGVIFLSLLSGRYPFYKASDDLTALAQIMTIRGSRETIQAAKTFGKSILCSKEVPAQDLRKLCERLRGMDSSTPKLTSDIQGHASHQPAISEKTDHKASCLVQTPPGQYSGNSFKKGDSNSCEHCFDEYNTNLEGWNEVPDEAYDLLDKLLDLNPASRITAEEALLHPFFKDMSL
T1 sequence (Q9UBU7 whole entry partner): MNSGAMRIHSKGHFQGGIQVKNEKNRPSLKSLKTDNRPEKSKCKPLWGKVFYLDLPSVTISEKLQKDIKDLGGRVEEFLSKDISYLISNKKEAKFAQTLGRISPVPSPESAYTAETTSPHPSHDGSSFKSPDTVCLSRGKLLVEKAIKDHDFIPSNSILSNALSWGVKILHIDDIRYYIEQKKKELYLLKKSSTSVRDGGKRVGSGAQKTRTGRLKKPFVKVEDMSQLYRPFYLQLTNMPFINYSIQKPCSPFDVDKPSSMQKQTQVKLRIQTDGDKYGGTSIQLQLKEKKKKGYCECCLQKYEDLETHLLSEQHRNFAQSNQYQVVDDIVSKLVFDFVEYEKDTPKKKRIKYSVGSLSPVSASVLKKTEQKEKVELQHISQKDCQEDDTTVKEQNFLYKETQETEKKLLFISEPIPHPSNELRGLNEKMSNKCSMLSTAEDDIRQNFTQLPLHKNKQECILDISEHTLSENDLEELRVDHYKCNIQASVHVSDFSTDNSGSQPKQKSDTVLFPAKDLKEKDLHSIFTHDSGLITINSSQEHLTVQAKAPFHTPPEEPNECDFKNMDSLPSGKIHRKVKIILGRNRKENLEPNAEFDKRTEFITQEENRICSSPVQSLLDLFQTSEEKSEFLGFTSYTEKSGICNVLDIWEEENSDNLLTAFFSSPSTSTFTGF

Regarding `O=C(O)/C=C/c1ccc(O)c(O)c1` [Caffeic acid], in data set [1], the Solubility result was “Soluble”.
As to `O=C(O)CN(CCN(CC(=O)O)CC(=O)O)CC(=O)O` [EDTA], the “inhibition of Cdc7-Dbf4 kinase activity (control selection)” value in data set [2] was “inhibited the Cdc7-Dbf4 kinase activity”.
Turning to `O=c1oc2c(O)c(O)cc3c(=O)oc4c(O)c(O)cc1c4c23` [Ellagic acid], the Solubility result in data set [1] is listed as “Soluble”.
`CCOC(=O)[C@H](CCc1ccccc1)N[C@@H](C)C(=O)N1CCC[C@H]1C(=O)O` [Enalapril maleate, reference compound]: the Solubility result in data set [1] is “Soluble”. Besides, in data set [3], the “ADP production IC50” value is reported as “N.E. ^1”.
Turning to `O=C(O[C@@H]1Cc2c(O)cc(O)cc2O[C@@H]1c1cc(O)c(O)c(O)c1)c1cc(O)c(O)c(O)c1` [Epigallocatechin-3-monogallate], the Solubility entry in data set [1] is recorded as “Soluble”.
Consider `O=c1c(O)c(-c2ccc(O)c(O)c2)oc2cc(O)ccc12` [Fisetin], for which the Solubility result in data set [1] was “Soluble”. The “ADP production IC50” value in data set [3] was “N.E”.
Regarding `CN(C)c1ccc(C(=C2C=CC(=[N+](C)C)C=C2)c2ccc(N(C)C)cc2)cc1` [Gentian violet, reference compound], the Solubility entry in data set [1] was “Soluble”. In addition, the inhibition at 10 µM is 23% in data set [3] (read-out: averaged percent inhibition (two data sets)); 23% in data set [3] (read-out: percent inhibition, Set 1); 23% in data set [3] (read-out: percent inhibition, Set 2).
For the molecule `O=C1C=C2CC3(O)COc4c(ccc(O)c4O)C3=C2C=C1O` (stereo not drawn) [Hematein], the Solubility result in data set [1] is reported as “Soluble”.
As to `O=c1cc(-c2cc(O)c(O)c(O)c2)oc2cc(O)cc(O)c12` [Hieracin], in data set [1], the Solubility result was “Soluble”. Moreover, the “ADP production IC50” value in data set [3] was “N.E”.
The matching figures for `O=C(CCCCC(=O)Nc1c(I)cc(I)c(C(=O)O)c1I)Nc1c(I)cc(I)c(C(=O)O)c1I` [Iodipamide, reference compound]: “Soluble” and “N.E”.
With `O=c1c(-c2cc(O)c(O)c(O)c2)coc2cc(O)c(O)c(O)c12` [Irigenol], the Solubility result in data set [1] is “Soluble”.
Take `CC(=O)Oc1cc(-c2coc3cc(OC(C)=O)c(OC(C)=O)c(OC(C)=O)c3c2=O)cc(OC(C)=O)c1OC(C)=O` [Iriginol hexaaceatate]: in data set [1], the Solubility entry is on record as “Soluble”.
Same read-out and setting: as for `O=c1c(O)c(-c2cc(O)c(O)c(O)c2)oc2cc(O)cc(O)c12` [Myricetin], the entry is “Soluble”; as for `N=C1C=CC(=C(c2ccc(N)cc2)c2ccc(N)cc2)C=C1` [Pararosaniline pamoate, reference compound], “Soluble”.
Consider `O=c1c(O)cccc2cc(O)c(O)c(O)c12` [Purpurogallin], for which the Solubility entry in data set [1] was “Soluble”. Further, the “ADP production IC50” value in data set [3] was “N.E. ^1”.
In the case of `O=c1c(O)c(-c2ccc(O)c(O)c2)oc2cc(O)cc(O)c12` [Quercetin], the Solubility entry in data set [1] is “Soluble”.
Still for that read-out and setting: the result for `O=C(O[C@@H]1Cc2c(O)cc(O)cc2O[C@@H]1c1cc(O)c(=O)c2c(O)c(O)cc([C@H]3Oc4cc(O)cc(O)c4C[C@H]3O)c2c1)c1cc(O)c(O)c(O)c1` [Theaflavin monogallates] reads “Soluble”.
For Pyrogallin, the Solubility entry in data set [1] is “Soluble”. Moreover, in data set [3], the “ADP production IC50” value is “N.E”.
Turning to Tannic acid, in data set [1], the Solubility entry is on record as “Soluble”. For the same molecule, in data set [4], the “concentration at which compound inhibits luminescence detection” value amounted to 10 µM. Further, in data set [5], the “concentration at which ATP depletion is inhibited” value is “higher than 0.2 μM”. Besides, the “percent inhibition, Set 1” value in data set [3] (LUM method pilot screen, 10 μM compound in 1% DMSO, Set 1 of duplicate) came out at 46%. Besides, the “percent inhibition, Set 2” value in data set [3] (LUM method pilot screen, 10 μM compound in 1% DMSO, Set 2 of duplicate) stood at 52%. Also, the “averaged percent inhibition (two data sets)” value in data set [3] (LUM method pilot screen, 10 μM compound, average of duplicate) stood at 49%.
